Experimental findings from PubChem BioAssay (NCI) are described below.

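1) Cells in 96-well plates. 2) Compound, 48 h, 5 concentrations. 3) Linear interpolation between surrounding doses. 4) Unreached endpoint = highest concentration. GI50 is the concentration that inhibits growth by half. TGI is the concentration that stops growth completely.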 Some results are limits rather than exact numbers.

What all share (assay): NCI anticancer screen, dose series, 48 h
Experiment [1] deals with UACC-257 melanoma.
In experiment [2] the test system is OVCAR-5 ovarian.
Experiment [3] concerns NCI-H460 lung.
Experiment [4] relates to MALME-3M melanoma.
For experiment [5], the system named is HCT-116 colon.
The subject of experiment [6] is IGROV1 ovarian.
The test system of experiment [7] is RPMI-8226 leukemia.
For experiment [8], the system named is SNB-19 CNS.
For experiment [9], the system named is A549 NSCLC.
Experiment [10] has as its system SK-MEL-5 melanoma.

Take `O=c1oc2ccc(I)cc2c(=O)n1-c1ccc(Br)cc1F`: the GI50 in experiment [1] was 0.735 µM; in experiment [2] it was 3.55 µM; in [3], 0.5 µM; in experiment [4], 0.462 µM; in [5], 0.621 µM; in experiment [6] it was 0.745 µM. In addition, the GI50 in experiment [7] is 0.398 µM; in experiment [8], 0.434 µM; in experiment [9], 2.82 µM; in [10] it was 0.317 µM. Moreover, the TGI in experiment [1] was 5.02 µM; in [2], over 100 µM; in [3] it was 10.6 µM; in experiment [4], 2.55 µM; in experiment [5] it was 2.38 µM; in experiment [6] it was 13.3 µM. Also, the TGI in experiment [7] is 2.57 µM; in experiment [8], over 63.5 µM; in experiment [9], over 39.7 µM; in experiment [10] it was 1.04 µM.

In the case of `CC(=O)O[C@@H]1C2CCC3C(CC[C@@]4(C)C3CC[C@@H]4C(C)N(C)C)[C@@]2(C)CC[C@@H]1NC(=O)C=C(C)C` (stereo not given in full), the GI50 in experiment [1] was 2.33 µM; in [2] it was 3.33 µM; in experiment [3], 1.67 µM; in experiment [4], 1.91 µM; in [5], 1.54 µM; in experiment [6] it was 4.76 µM. In addition, the GI50 is 1.96 µM in [7], 6.89 µM in experiment [8], 2.58 µM in [9] and 1.38 µM in [10]. The TGI in experiment [1] amounted to 4.98 µM; in experiment [2], 14.1 µM; in experiment [3] it was 3.31 µM; in [4], 3.89 µM; in [5] it was 3.49 µM; in [6], 16 µM. Also, the TGI in experiment [7] worked out at 5.53 µM; in experiment [8], 18.7 µM; in experiment [9] it was 6.27 µM; in [10] it was 2.68 µM.

For `CNC(=O)c1c(C)oc2cc(Oc3ncnc4cc(OC)c(OC)cc34)ccc12`, the GI50 in [1], in experiment [2], in [3], in experiment [4], in experiment [5] and in experiment [6] was over 100 µM each time. Also, the GI50 in experiment [7], in experiment [8], in experiment [9] and in experiment [10] was over 100 µM throughout. The TGI in experiment [1], in experiment [2], in experiment [3], in experiment [4], in [5] and in [6] was over 100 µM in each case. Further, the TGI in experiment [7], in [8], in experiment [9] and in experiment [10] was over 100 µM in each case.

For the compound `O=C1Nc2c(ccc(Cl)c2Cl)/C1=C/c1cc(Br)c(O)c(Br)c1`, the GI50 in experiment [1] was 6.19 µM; in [2], 20.6 µM; in [3], 3.13 µM; in experiment [4] it was 2.53 µM; in experiment [5], 4.45 µM; in experiment [6] it was 8.91 µM. Besides, the GI50 in experiment [7] was 2.61 µM; in experiment [8], 4.6 µM; in [9], 7.7 µM; in experiment [10], 2.6 µM. Besides, the TGI in experiment [1] is 26.6 µM; in experiment [2], over 74 µM; in experiment [3] it was 16.9 µM; in [4], 32.4 µM; in experiment [5], over 44.9 µM; in experiment [6], over 55.8 µM. The TGI in experiment [7] is 67.7 µM; in experiment [8], over 63.3 µM; in [9], over 100 µM; in [10], 10.2 µM.

As for `COc1cc(/C=C/c2cc(/C=C/c3ccc(O)c(OC)c3)n(C(=O)c3ccc(Cl)cc3)n2)ccc1O`, the GI50 in experiment [1] was 3.79 µM; in experiment [2], 3.66 µM; in experiment [3], 2.03 µM; in experiment [4] it was 1.31 µM; in experiment [5], 2.15 µM; in [6], 3.17 µM. In addition, the GI50 was 1.83 µM in experiment [7], 2.8 µM in experiment [8], 3.3 µM in experiment [9] and 2.27 µM in experiment [10]. For the same compound, the TGI in experiment [1] was determined as 13.2 µM; in [2] it was 18.2 µM; in [3] it was 20.4 µM; in [4], 10.1 µM; in experiment [5], 47.9 µM; in experiment [6], 15.4 µM. The TGI in [7] came out at 6.33 µM; in experiment [8], 12.1 µM; in experiment [9] it was 12.8 µM; in experiment [10], 11.6 µM.

For the compound `COc1cc2c(cc1OC(C)C)[C@H](c1ccc(Cl)cc1)N(c1ccc(N(C)CC3CCC(N4CCN(C)C(=O)C4)CC3)cc1)C(=O)C2` (stereo not given in full), the GI50 in [1] is 1.4 µM; in [2] it was 2.66 µM; in [3], 0.531 µM; in experiment [4], 0.09 µM; in experiment [5], 0.447 µM; in experiment [6] it was 1.16 µM. The GI50 in [7] was 2.13 µM; in [8] it was 4.07 µM; in [9], 0.537 µM; in [10], 1.44 µM. The TGI in experiment [1] was found to be 6.92 µM; in experiment [2] it was 9.58 µM; in experiment [3], 4.43 µM; in experiment [4], 2.74 µM; in experiment [5], 2.48 µM; in experiment [6] it was 4.13 µM. Besides, the TGI in experiment [7] worked out at 4.76 µM; in experiment [8] it was 14.7 µM; in experiment [9], 5.24 µM; in [10], 2.84 µM.

As for `O=C1N[C@@H]2[C@@H](O)[C@@H](O)[C@H](O)C[C@H]2c2cc3c(c(O)c21)OCCO3`, the GI50 in experiment [1] is 0.34 µM; in [2], 0.412 µM; in experiment [3], 0.157 µM; in experiment [4], 0.209 µM; in [5] it was 0.107 µM; in experiment [6], 0.389 µM. In addition, the GI50 is 0.256 µM in [7], 0.179 µM in [8], 0.354 µM in experiment [9] and 0.192 µM in experiment [10]. Further, the TGI in [1] is 1.97 µM; in experiment [2], 3.28 µM; in [3], 1.13 µM; in experiment [4], 0.731 µM; in experiment [5], 1.22 µM; in experiment [6] it was 3.13 µM. Besides, the TGI amounted to 0.91 µM in experiment [7], 1.02 µM in experiment [8], 5.58 µM in [9] and 0.478 µM in experiment [10].

In the case of `C=C[C@@H](C)[C@]1(C(=O)OC)CCCC12OCCO2`, the TGI in experiment [1], in experiment [2], in [3], in experiment [4], in experiment [5] and in experiment [6] was over 100 µM throughout. The TGI in [7], in experiment [8], in experiment [9] and in experiment [10] was over 100 µM throughout.
